The text below walks through data of patent publication US10005829B2, “Synthetic linear apelin mimetics for the treatment of heart failure” (priority 2012, dated 2018).

Molecules are shown by their SMILES. Where a SMILES comes first, the peptide text is derived from it. [ ]: non-standard residue; d: D form. The star is where a group is joined. pGlu = O=C1CC[C@@H](C(=O)O)N1; dNle = CCCC[C@@H](N)C(=O)O; Bn = c1ccc(C*)cc1

A short description of this data set: Surrogate activity-based plasma stability assay. The conditions noted are these: 5% rat plasma, 37° C., EC50 at t0 and t24 hrs; Table 2. The class given is in vitro ADME.

Method: • Stability assay: stability half-life, (t ½), values were determined by converting peak areas at each time point to percent remaining relative to initial (t=0) peak area. Percent remaining=100×(sample peak area)÷(t=0 peak area) • The natural log of percent remaining values were calculated and plotted against sample time (Microsoft Excel). The slope of this line, k, was determined by linear regression (Microsoft Excel). • Stability half-life was then calculated by the formula, t ½=0.693÷k Surrogate Activity-based Plasma Stability Assay:
The calcium flux protocol described above was followed, with the following changes. The peptides were also incubated with 5% rat plasma (Bioreclamation # [sequence]-M, Na Heparin-treated). Readings were taken at time points t0 and t24 hrs, after incubation in a 37° C. tissue culture incubator. Peptide plasma half-life in minutes was estimated by calculating the following:

`CCCC[C@@H](NC(=O)[C@@H]1CCCN1C(=O)CNC(=O)[C@H](CCCCN)NC(=O)[C@H](Cc1c[nH]cn1)NC(=O)[C@@H](C)NC(=O)[C@H](Cc1ccc(OCc2ccccc2)cc1)NC(=O)[C@H](CCCNC(=N)N)NC(=O)[C@@H]1CCCN1C(=O)[C@H](CCCNC(=N)N)NC(=O)[C@@H]1CCC(=O)N1)C(=O)N[C@H](C)C(=O)N[C@H](Cc1ccccc1)C(=O)O` [Example 27, pE-R-P-R-Y(Bzl)-a-H-K-G-P-nle-a-f-OH] ([pGlu]RPRY(Bn)[dA]HKGP[dNle][dA][dF]-OH): the “Surrogate activity-based Plasma stability t½” value was found to be 5.815 h.
